From PubChem BioAssay AID256 (DTP/NCI, 2004)
Where “and” joins values, the source holds several entries; their conditions need not be identical. Equal entries are not always repeated. Inconclusive results and toxic doses are left out. The calls were made as follows: active = survival T/C of 150% or more; inactive = T/C below 125% in these data.

System: CD2F1 mice, L1210 leukemia ip, survival T/C
Assay: NCI In Vivo Anticancer Drug Screen. Data for tumor model L1210 Leukemia (intraperitoneal) in CD2F1 (CDF1) mice
Details: higher = longer survival
How it was run: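 Antitumor effect is scored in animals hosting a serially transplanted tumor. Values compare compound-dosed animals against vehicle-only controls as a simple quotient.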

[1] = endpoint: mean survival time, dose: 100.0 mg/kg/injection, schedule: Q04DX003 (ip), vehicle: other
[2] = endpoint: mean survival time, dose: 200.0 mg/kg/injection, schedule: Q04DX003 (ip), vehicle: other
[3] = endpoint: mean survival time, dose: 400.0 mg/kg/injection, schedule: Q04DX003 (ip), vehicle: other
[4] = endpoint: mean survival time, dose: 100.0 mg/kg/injection, schedule: Q04DX003 (ip), vehicle: saline with Tween-80
[5] = endpoint: mean survival time, dose: 200.0 mg/kg/injection, schedule: Q04DX003 (ip), vehicle: saline with Tween-80
[6] = endpoint: mean survival time, dose: 400.0 mg/kg/injection, schedule: Q04DX003 (ip), vehicle: saline with Tween-80
[7] = endpoint: mean survival time, dose: 200.0 mg/kg/injection, schedule: Q04DX002 (ip), vehicle: saline with Tween-80
[8] = endpoint: mean survival time, dose: 400.0 mg/kg/injection, schedule: Q04DX002 (ip), vehicle: saline with Tween-80
[9] = endpoint: mean survival time, dose: 25.0 mg/kg/injection, schedule: Q01DX009 (ip), vehicle: saline with Tween-80
[10] = endpoint: mean survival time, dose: 50.0 mg/kg/injection, schedule: Q01DX009 (ip), vehicle: saline with Tween-80
[11] = endpoint: mean survival time, dose: 400.0 mg/kg/injection, schedule: Q01DX009 (ip), vehicle: saline with Tween-80
[12] = endpoint: mean survival time, dose: 100.0 mg/kg/injection, schedule: Q01DX001 (ip), vehicle: saline with Tween-80
[13] = endpoint: mean survival time, dose: 200.0 mg/kg/injection, schedule: Q01DX001 (ip), vehicle: saline with Tween-80
[14] = endpoint: mean survival time, dose: 400.0 mg/kg/injection, schedule: Q01DX001 (ip), vehicle: saline with Tween-80

Measured: T/C

c1ccc(C2CC2c2ccccc2)cc1 (centres undefined)
inactive: endpoint: mean survival time, dose: 75.0 mg/kg/injection, schedule: Q01DX001 (ip), vehicle: saline 100 % of control | endpoint: mean survival time, dose: 150.0 mg/kg/injection, schedule: Q01DX001 (ip), vehicle: saline 96 % of control | endpoint: mean survival time, dose: 300.0 mg/kg/injection, schedule: Q01DX001 (ip), vehicle: saline 98 % of control

COc1nc(NC2OC(CO)C(O)C(O)C2O)cc(=O)[nH]1 (centres undefined)
inactive: endpoint: median survival time, dose: 12.5 mg/kg/injection, schedule: Q01DX005 (ip), vehicle: saline 105 % of control | endpoint: median survival time, dose: 25.0 mg/kg/injection, schedule: Q01DX005 (ip), vehicle: saline 97 % of control | endpoint: median survival time, dose: 50.0 mg/kg/injection, schedule: Q01DX005 (ip), vehicle: saline 100 % of control | endpoint: median survival time, dose: 100.0 mg/kg/injection, schedule: Q01DX005 (ip), vehicle: saline 100 % of control | endpoint: median survival time, dose: 200.0 mg/kg/injection, schedule: Q01DX005 (ip), vehicle: saline 102 % of control

CCCCCCCCCCC(=O)CCCCC
inactive: endpoint: mean survival time, dose: 100.0 mg/kg/injection, schedule: Q01DX009 (ip), vehicle: other 101 % of control | [1] 105 % of control | endpoint: mean survival time, dose: 200.0 mg/kg/injection, schedule: Q01DX009 (ip), vehicle: other 107 % of control | [2] 100 % of control | endpoint: mean survival time, dose: 400.0 mg/kg/injection, schedule: Q01DX009 (ip), vehicle: other 104 % of control | [3] 94 % of control

O=[N+]([O-])c1ccc(-c2ccccc2)cc1
inactive: [4] 100 % of control | [5] 96 % of control | [6] 97 % of control

CC(C)NC(C)C
inactive: [7] 98 % of control | [8] 98 % of control

CC(=O)O.[La]
inactive: endpoint: mean survival time, dose: 200.0 mg/kg/injection, schedule: Q01DX001 (ip), vehicle: saline 94 % of control

O=C(Nc1nncs1)c1ccncc1
inactive: endpoint: mean survival time, dose: 12.5 mg/kg/injection, schedule: Q01DX009 (ip), vehicle: saline with Tween-80 95 % of control and 112 % of control | [9] 115 % of control and 92 % of control | [10] 103 % of control | endpoint: mean survival time, dose: 200.0 mg/kg/injection, schedule: Q01DX009 (ip), vehicle: saline with Tween-80 123 % of control and 94 % of control | [11] 110 % of control

COP(=O)(OC)OCC1OC(n2cnc3c(N)ncnc32)C(O)C1O (centres undefined)
inactive: endpoint: median survival time, dose: 12.5 mg/kg/injection, schedule: Q01DX005 (ip), vehicle: water 96 % of control | endpoint: median survival time, dose: 25.0 mg/kg/injection, schedule: Q01DX005 (ip), vehicle: water 96 % of control | endpoint: median survival time, dose: 50.0 mg/kg/injection, schedule: Q01DX005 (ip), vehicle: water 102 % of control | endpoint: median survival time, dose: 100.0 mg/kg/injection, schedule: Q01DX005 (ip), vehicle: water 103 % of control | endpoint: median survival time, dose: 200.0 mg/kg/injection, schedule: Q01DX005 (ip), vehicle: water 100 % of control

c1ccc(CCc2nc(-c3ccccc3)cc(-c3ccccc3)n2)cc1
inactive: [12] 89 % of control | [13] 92 % of control | [14] 87 % of control

c1ccc2c(c1)-c1nc3ccccc3cc1CC21CCCC1
inactive: [12] 98 % of control | [13] 98 % of control | [14] 93 % of control

O=C1CCCO1
inactive: endpoint: mean survival time, dose: 12.0 mg/kg/injection, schedule: Q01DX009 (ip), vehicle: saline 99 % of control | endpoint: mean survival time, dose: 50.0 mg/kg/injection, schedule: Q01DX009 (ip), vehicle: saline 91 % of control | endpoint: mean survival time, dose: 100.0 mg/kg/injection, schedule: Q01DX009 (ip), vehicle: saline 92 % of control | endpoint: mean survival time, dose: 100.0 mg/kg/injection, schedule: Q04DX002 (ip), vehicle: saline 107 % of control | endpoint: mean survival time, dose: 200.0 mg/kg/injection, schedule: Q04DX002 (ip), vehicle: saline 98 % of control | endpoint: mean survival time, dose: 400.0 mg/kg/injection, schedule: Q04DX002 (ip), vehicle: saline 102 % of control

O=c1[nH]c2ccccc2nc1Cl
inactive: endpoint: mean survival time, dose: 25.0 mg/kg/injection, schedule: Q04DX002 (ip), vehicle: saline with Tween-80 94 % of control | endpoint: mean survival time, dose: 50.0 mg/kg/injection, schedule: Q04DX002 (ip), vehicle: saline with Tween-80 94 % of control | endpoint: mean survival time, dose: 100.0 mg/kg/injection, schedule: Q04DX002 (ip), vehicle: saline with Tween-80 94 % of control | [7] 90 % of control | [8] 90 % of control

Cc1ccc(S(=O)(=O)N/N=C/c2ccc(C(=O)O)cc2)cc1
inactive: endpoint: mean survival time, dose: 12.5 mg/kg/injection, schedule: Q04DX003 (ip), vehicle: other 101 % of control | endpoint: mean survival time, dose: 25.0 mg/kg/injection, schedule: Q04DX003 (ip), vehicle: other 97 % of control | endpoint: mean survival time, dose: 50.0 mg/kg/injection, schedule: Q04DX003 (ip), vehicle: other 106 % of control | [1] 95 % of control | [2] 95 % of control | [3] 106 % of control

CC(C)(CC(=O)O)CC(=O)O.[NH-]C1CCCCC1[NH-].[Pt+2]
inactive: endpoint: median survival time, dose: 3.12 mg/kg/injection, schedule: Q04DX003 (ip), vehicle: saline 87 % of control | endpoint: median survival time, dose: 6.25 mg/kg/injection, schedule: Q04DX003 (ip), vehicle: saline 102 % of control | endpoint: median survival time, dose: 12.5 mg/kg/injection, schedule: Q04DX003 (ip), vehicle: saline 98 % of control | endpoint: median survival time, dose: 25.0 mg/kg/injection, schedule: Q04DX003 (ip), vehicle: saline 108 % of control | endpoint: median survival time, dose: 50.0 mg/kg/injection, schedule: Q04DX003 (ip), vehicle: saline 101 % of control | endpoint: median survival time, dose: 100.0 mg/kg/injection, schedule: Q04DX003 (ip), vehicle: saline 103 % of control | endpoint: median survival time, dose: 200.0 mg/kg/injection, schedule: Q04DX003 (ip), vehicle: saline 112 % of control

COc1cccc(CCC(=O)O)c1OC
inactive: endpoint: mean survival time, dose: 25.0 mg/kg/injection, schedule: Q01DX009 (ip), vehicle: Klucel (hydroxypropylcellulose) (HPC) 98 % of control | endpoint: mean survival time, dose: 50.0 mg/kg/injection, schedule: Q01DX009 (ip), vehicle: Klucel (hydroxypropylcellulose) (HPC) 101 % of control | endpoint: mean survival time, dose: 100.0 mg/kg/injection, schedule: Q01DX009 (ip), vehicle: Klucel (hydroxypropylcellulose) (HPC) 98 % of control | endpoint: mean survival time, dose: 200.0 mg/kg/injection, schedule: Q01DX009 (ip), vehicle: Klucel (hydroxypropylcellulose) (HPC) 87 % of control | endpoint: mean survival time, dose: 400.0 mg/kg/injection, schedule: Q01DX009 (ip), vehicle: Klucel (hydroxypropylcellulose) (HPC) 88 % of control

Cc1nc(-c2ccccc2)[nH]c(=O)c1CCO
inactive: [4] 100 % of control | [5] 100 % of control | [6] 111 % of control

CCOC(=O)C1(C#N)C(=O)CSC1=Nc1ccccc1Cl (centres undefined)
inactive: [9] 90 % of control | [10] 91 % of control | endpoint: mean survival time, dose: 100.0 mg/kg/injection, schedule: Q01DX009 (ip), vehicle: saline with Tween-80 86 % of control | [11] 86 % of control

CC(=O)c1cno[n+]1[O-]
inactive: endpoint: mean survival time, dose: 5.0 mg/kg/injection, schedule: Q01DX009 (ip), vehicle: saline with Tween-80 97 % of control | endpoint: mean survival time, dose: 10.0 mg/kg/injection, schedule: Q01DX009 (ip), vehicle: saline with Tween-80 113 % of control
